This test deals with T1, Recombinant human TLR7 (Homo sapiens, UniProt Q9NYK1).
T1 construct: expressed in transfected cells; host or cells: HEK293 cell line stably expressing the pNiFty2-SEAP reporter plasmid; TLR7 in vector pUNO, blasticidin selection
T1 sequence (Q9NYK1 27-1049): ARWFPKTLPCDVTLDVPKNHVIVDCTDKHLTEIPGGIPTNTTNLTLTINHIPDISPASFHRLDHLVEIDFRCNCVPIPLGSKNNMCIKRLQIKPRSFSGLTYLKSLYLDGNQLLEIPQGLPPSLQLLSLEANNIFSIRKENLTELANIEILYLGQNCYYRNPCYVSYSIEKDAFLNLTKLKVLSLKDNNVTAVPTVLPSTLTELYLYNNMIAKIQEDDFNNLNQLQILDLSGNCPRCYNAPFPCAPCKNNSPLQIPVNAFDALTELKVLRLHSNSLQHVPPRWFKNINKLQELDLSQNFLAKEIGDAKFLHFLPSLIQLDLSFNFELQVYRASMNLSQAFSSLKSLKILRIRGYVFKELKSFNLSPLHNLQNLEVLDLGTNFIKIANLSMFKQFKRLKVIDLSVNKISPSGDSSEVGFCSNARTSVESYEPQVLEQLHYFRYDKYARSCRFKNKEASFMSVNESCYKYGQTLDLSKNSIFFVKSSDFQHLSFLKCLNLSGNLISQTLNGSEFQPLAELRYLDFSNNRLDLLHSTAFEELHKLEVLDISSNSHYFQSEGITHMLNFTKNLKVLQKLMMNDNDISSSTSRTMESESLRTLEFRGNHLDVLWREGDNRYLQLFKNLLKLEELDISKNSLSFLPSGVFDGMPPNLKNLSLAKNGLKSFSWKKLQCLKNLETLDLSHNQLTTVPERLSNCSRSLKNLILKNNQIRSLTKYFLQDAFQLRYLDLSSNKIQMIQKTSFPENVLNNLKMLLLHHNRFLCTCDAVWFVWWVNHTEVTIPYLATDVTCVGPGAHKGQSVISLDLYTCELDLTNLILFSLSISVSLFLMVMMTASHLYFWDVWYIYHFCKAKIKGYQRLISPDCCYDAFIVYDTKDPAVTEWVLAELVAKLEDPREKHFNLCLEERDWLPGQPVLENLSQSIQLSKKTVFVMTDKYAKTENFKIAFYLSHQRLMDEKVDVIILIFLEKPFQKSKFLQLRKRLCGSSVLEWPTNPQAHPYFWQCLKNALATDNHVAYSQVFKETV
In words: Human TLR7 Assay (SEAP reporter).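 Further: SEAP driven by an NFkB-responsive composite promoter, pEC50 read at half of each compound's own maximal SEAP induction.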 Conditions: HEK293 cell line stably expressing human TLR7 and pNiFty2-SEAP reporter; SEAP induction after overnight incubation at 37° C., 0.1% (v/v) DMSO. It counts as cell-based.

In general, EC50 refers to the concentration at which the effect is half-maximal.

Source text: Recombinant human TLR7 was stably expressed in a HEK293 cell line already stably expressing the pNiFty2-SEAP reporter plasmid; integration of the reporter gene was maintained by selection with the antibiotic zeocin. The most common variant sequence of human TLR7 (represented by the EMBL sequence AF240467) was cloned into the mammalian cell expression vector pUNO and transfected into this reporter cell-line. Transfectants with stable expression were selected using the antibiotic blasticidin. In this reporter cell-line, expression of secreted alkaline phosphatase (SEAP) is controlled by an NFkB/ELAM-1 composite promoter comprising five NFkB sites combined with the proximal ELAM-1 promoter. TLR signaling leads to the translocation of NFkB and activation of the promoter results in expression of the SEAP gene. TLR7-specific activation was assessed by determining the level of SEAP produced following overnight incubation of the cells at 37° C. with the standard compound in the presence of 0.1% (v/v) dimethylsulfoxide (DMSO). Concentration dependent induction of SEAP production by compounds was expressed as the concentration of compound which produced half of the maximal level of SEAP induction for that compound (pEC50).

On to `CCCCCNc1nc(N)nc(C)c1Cc1ccc(CC(=O)OC2CCN(C)CC2)cc1` [Example 59, 1-Methylpiperidin-4-yl 2-(4-((2-amino-4-methyl-6-(pentylamino)pyrimidin-5-yl)methyl)phenyl)acetate], for which the EC50 was 126 nM.

For the compound `CCCCNc1nc(N)nc(C)c1Cc1ccc(CC(=O)OCCCO)cc1OC` [Example 93, 3-Hydroxypropyl 2-(4-((2-amino-4-(butylamino)-6-methylpyrimidin-5-yl)methyl)-3-methoxyphenyl)acetate], the EC50 is 20 nM.

Turning to `CCCCCNc1nc(N)nc(C)c1Cc1cccc(CC(=O)OCC2CCN(C)CC2)c1` [Example 85, (1-Methylpiperidin-4-yl)methyl 2-(3-((2-amino-4-methyl-6-(pentylamino)pyrimidin-5-yl)methyl)phenyl)acetate], the EC50 is 501 nM.

In the case of `CCCCNc1nc(N)nc(C)c1Cc1ccc(CC(=O)OCC2CCN(C)CC2)cc1` [Example 69, (1-Methylpiperidin-4-yl)methyl 2-(4-((2-amino-4-(butylamino)-6-methylpyrimidin-5-yl)methyl)phenyl)acetate], the EC50 was 126 nM.

With `CCCC[C@@H](CCO)Nc1nc(N)nc(C)c1CCCN(Cc1ccc(CC(=O)OC)cc1)C(=O)CN(C)C` [Example 19, (S)-Methyl 2-(4-((N-(3-(2-amino-4-(1-hydroxyheptan-3-ylamino)-6-methylpyrimidin-5-yl)propyl)-2-(dimethylamino)acetamido)methyl)phenyl)acetate], the EC50 is 2510 nM.

For `CCCCNc1nc(N)nc(C)c1Cc1ccc(CC(=O)OCCO)cc1OC` [Example 89, 2-Hydroxyethyl 2-(4-((2-amino-4-(butylamino)-6-methylpyrimidin-5-yl)methyl)-3-methoxyphenyl)acetate], the concentration giving a half-maximal response (EC50) is 50.1 nM.

On to `CCCC[C@@H](CO)Nc1nc(N)nc(C)c1Cc1ccc(CC(=O)OC)cc1` [Example 44, (S)-Methyl 2-(4-((2-amino-4-(1-hydroxyhexan-2-ylamino)-6-methylpyrimidin-5-yl)methyl)phenyl)acetate], for which the EC50 is 631 nM.

Take `CCC[C@@H](CCO)Nc1nc(N)nc(C)c1Cc1ccc(CC(=O)OC)cc1` [Example 49, (S)-Methyl 2-(4-((2-amino-4-(1-hydroxyhexan-3-ylamino)-6-methylpyrimidin-5-yl)methyl)phenyl)acetate]: the EC50 was 200 nM.

For `CCCCNc1nc(N)nc(C)c1Cc1cc(CC(=O)OC)ccc1OC` [Example 98, Methyl 2-(3-((2-amino-4-(butylamino)-6-methylpyrimidin-5-yl)methyl)-4-methoxyphenyl)acetate], the EC50 is 50.1 nM.

Turning to `CCCCNc1nc(N)nc(C)c1Cc1cc(CC(=O)OC)ccc1O` [Example 99, Methyl 2-(3-((2-amino-4-(butylamino)-6-methylpyrimidin-5-yl)methyl)-4-hydroxyphenyl)acetate], the concentration for a half-maximal effect (EC50) was 79.4 nM.

On to `CCCCCNc1nc(N)nc(C)c1Cc1ccc(CC(=O)OCC2CCN(CCOC)CC2)cc1` [Example 62, (1-(2-Methoxyethyl)piperidin-4-yl)methyl 2-(4-((2-amino-4-methyl-6-(pentylamino)pyrimidin-5-yl)methyl)phenyl)acetate], for which the EC50 is 200 nM.

On to `CCCCCNc1nc(N)nc(C)c1Cc1ccc(CC(=O)OCCCCN2CCCC2)cc1` [Example 61, 4-(Pyrrolidin-1-yl)butyl 2-(4-((2-amino-4-methyl-6-(pentylamino)pyrimidin-5-yl)methyl)phenyl)acetate], for which the EC50 was 126 nM.

Consider `CCCCCNc1nc(N)nc(C)c1Cc1ccc(CC(=O)OCCCN2CCN(C)CC2)cc1` [Example 56, 3-(4-Methylpiperazin-1-yl)propyl 2-(4-((2-amino-4-methyl-6-(pentylamino)pyrimidin-5-yl)methyl)phenyl)acetate], for which the half-maximal effective concentration (EC50) was 251 nM.

For the compound `CCCC[C@@H](CCO)Nc1nc(N)nc(C)c1CCCNCc1ccc(CC(=O)OC)cc1` [Example 18, (S)-Methyl 2-(4-((3-(2-amino-4-(1-hydroxyheptan-3-ylamino)-6-methylpyrimidin-5-yl)propylamino)methyl)phenyl)acetate], the EC50 was 1580 nM.

`CCC[C@@H](CCO)Nc1nc(N)nc(C)c1Cc1ccc(CC(=O)OCCCCN2CCCC2)cc1O` [Example 78, (S)-4-(Pyrrolidin-1-yl)butyl 2-(4-((2-amino-4-(1-hydroxyhexan-3-ylamino)-6-methylpyrimidin-5-yl)methyl)-3-hydroxyphenyl)acetate]: the EC50 is 50.1 nM.

Turning to `CCCCCNc1nc(N)nc(C)c1CCCN(Cc1cccc(CC(=O)OC)c1)C(=O)CN(C)CCO` [Example 10], the 50% effective concentration (EC50) was 1580 nM.

As for `CCCCCNc1nc(N)nc(C)c1CCCN(Cc1cccc(CC(=O)OC)c1)C(=O)CCCN(C)C` [Example 12, Methyl 2-(3-((N-(3-(2-amino-4-methyl-6-(pentylamino)pyrimidin-5-yl)propyl)-4-(dimethylamino)butanamido)methyl)phenyl)acetate], the EC50 is 1580 nM.

For `CCCCCNc1nc(N)nc(C)c1Cc1ccc(CC(=O)OCCCCN2CCN(C)CC2)cc1` [Example 63, 4-(4-Methylpiperazin-1-yl)butyl 2-(4-((2-amino-4-methyl-6-(pentylamino)pyrimidin-5-yl)methyl)phenyl)acetate], the half-maximal effective concentration (EC50) was 158 nM.

With `CCCCCNc1nc(N)nc(C)c1CCCN(Cc1ccc(CC(=O)OC)cc1)C(=O)CN1CCC(c2ccccc2)CC1` [Example 28, Methyl 2-(4-((N-(3-(2-amino-4-methyl-6-(pentylamino)pyrimidin-5-yl)propyl)-2-(4-phenylpiperidin-1-yl)acetamido)methyl)phenyl)acetate], the EC50 is 1260 nM.

In the case of `CCC[C@@H](CO)Nc1nc(N)nc(C)c1Cc1ccc(CC(=O)OCC2CCN(C)CC2)cc1OC` [Example 71, (S)-(1-Methylpiperidin-4-yl)methyl 2-(4-((2-amino-4-(1-hydroxypentan-2-ylamino)-6-methylpyrimidin-5-yl)methyl)-3-methoxyphenyl)acetate], the EC50 was 20 nM.

On to `CCCCCNc1nc(N)nc(C)c1Cc1ccc(CC(=O)OCCCCN2CCC(N(C)C)CC2)cc1` [Example 68, 4-(4-(Dimethylamino)piperidin-1-yl)butyl 2-(4-((2-amino-4-methyl-6-(pentylamino)pyrimidin-5-yl)methyl)phenyl)acetate], for which the EC50 was 631 nM.

As to `CCC[C@@H](CCO)Nc1nc(N)nc(C)c1Cc1ccc(CC(=O)OCC2CCN(C)CC2)cc1F` [Example 74, (S)-(1-Methylpiperidin-4-yl)methyl 2-(4-((2-amino-4-(1-hydroxyhexan-3-ylamino)-6-methylpyrimidin-5-yl)methyl)-3-fluorophenyl)acetate], the EC50 is 39.8 nM.

Take `CCCCCNc1nc(N)nc(C)c1Cc1cccc(CC(=O)OC)c1` [Example 20, Methyl 2-(3-((2-amino-4-methyl-6-(pentylamino)pyrimidin-5-yl)methyl)phenyl)acetate]: the EC50 was 2000 nM.

As for `CCC[C@@H](CCO)Nc1nc(N)nc(C)c1Cc1ccc(CC(=O)OCCCCN2CCN(C)CC2)cc1F` [Example 87, (S)-4-(4-Methylpiperazin-1-yl)butyl 2-(4-((2-amino-4-(1-hydroxyhexan-3-ylamino)-6-methylpyrimidin-5-yl)methyl)-3-fluorophenyl)acetate], the EC50 is 25.1 nM.

On to `CCCCNc1nc(N)nc(C)c1Cc1cc(CC(=O)OCCCCN(C)C)ccc1OC` [Example 97, 4-(Dimethylamino)butyl 2-(3-((2-amino-4-(butylamino)-6-methylpyrimidin-5-yl)methyl)-4-methoxyphenyl)acetate], for which the EC50 was 31.6 nM.

As to `CCCCCNc1nc(N)nc(C)c1CCCN(Cc1cccc(CC(=O)OC)c1)C(=O)CN1CCC[C@H]1C(=O)OC` [Example 5, (S)-Methyl 1-(2-((3-(2-amino-4-methyl-6-(pentylamino)pyrimidin-5-yl)propyl)(3-(2-methoxy-2-oxoethyl)benzyl)amino)-2-oxoethyl)pyrrolidine-2-carboxylate], the EC50 was 631 nM.

Regarding `CCCCCNc1nc(N)nc(C)c1Cc1ccc(CC(=O)OCCC2CCN(C)CC2)cc1` [Example 66, 2-(1-Methylpiperidin-4-yl)ethyl 2-(4-((2-amino-4-methyl-6-(pentylamino)pyrimidin-5-yl)methyl)phenyl)acetate], the EC50 is 158 nM.

Turning to `CCCCNc1nc(N)nc(C)c1Cc1ccc(CC(=O)OCCCCN2CCCC2)cc1OC` [Example 73, 4-(Pyrrolidin-1-yl)butyl 2-(4-((2-amino-4-(butylamino)-6-methylpyrimidin-5-yl)methyl)-3-methoxyphenyl)acetate], the EC50 was 5.01 nM.

Source of the values: US8268990B2, “Compounds” (AstraZeneca AB, priority 2007, dated 2012).
